The values below come from PMC9698323, “Interaction of Destruxin A with Three Silkworm Proteins: BmCRT, BmDPP3, and BmPDIA5” (Molecules, 2022).

One assay concerns the target T1, BmCRT (calreticulin) (Bombyx mori, UniProt Q7Z1E6).
T1 construct: gene crt
T1 sequence (Q7Z1E6 20-398): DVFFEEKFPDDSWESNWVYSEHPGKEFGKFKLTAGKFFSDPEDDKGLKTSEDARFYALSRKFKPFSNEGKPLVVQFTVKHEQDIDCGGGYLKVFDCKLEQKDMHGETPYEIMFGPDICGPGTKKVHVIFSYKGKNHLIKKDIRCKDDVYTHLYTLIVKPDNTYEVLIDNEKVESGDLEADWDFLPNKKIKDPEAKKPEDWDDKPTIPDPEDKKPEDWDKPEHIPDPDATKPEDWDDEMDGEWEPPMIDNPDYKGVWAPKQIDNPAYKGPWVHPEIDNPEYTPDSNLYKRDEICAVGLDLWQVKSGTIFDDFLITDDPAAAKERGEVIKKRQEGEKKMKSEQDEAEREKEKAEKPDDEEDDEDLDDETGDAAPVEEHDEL
Briefly: SPR (Biacore 8K), multi-cycle kinetics. The assay is classed as binding.

The target of assay [1] is BmPDIA5 (protein disulfide isomerase A5). In words: SPR (Biacore 8K), multi-cycle kinetics. The assay is classed as binding, Bombyx mori. The conditions noted are these: 1 × PBSP, 5% DMSO; DA 15.6-250 µmol/L. On the technique in general: In SPR one partner is held on a chip, and binding of the other changes the refractive index at the surface.

Square brackets hold non-standard residues; d marks the D form. Peptide text beside a SMILES is read from it. dLac(3-vinyl) = C=CC[C@@H](O)C(=O)O; NMeV = CN[C@H](C(=O)O)C(C)C; NMeA = CN[C@@H](C)C(=O)O; βAla = NCCC(=O)O

As a reminder, the Kd is a measure of binding affinity in units of concentration. High values mean weaker binding, low ones tighter binding. Turning to `C=CC[C@H]1OC(=O)CCNC(=O)[C@H](C)N(C)C(=O)[C@H](C(C)C)N(C)C(=O)[C@H]([C@@H](C)CC)NC(=O)[C@@H]2CCCN2C1=O` [DA, Destruxin A] (cyclo([dLac(3-vinyl)]PI[NMeV][NMeA][βAla])), the dissociation constant Kd on BmCRT (calreticulin) is 198 µM; in assay [1], 92.6 µM.
